Experimental data published in PubChem BioAssay AID179 (DTP/NCI, 2004).
“And” between values parts separate entries of the source, which are not always exact repeats. Equal entries are not always repeated. The source made the active and inactive calls.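 How the source made its calls: active means compounds giving half or more protection of infected cells from virus-caused growth loss, again on retest; inactive means the rest.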 Where a SMILES comes first, the peptide text is derived from it. [ ]: non-standard residue; d: D form. The star is where a group is joined. ξ: configuration not given here. ξPhe(4-NO2) = NC(Cc1ccc([N+](=O)[O-])cc1)C(=O)O; Cbz = O=C(OCc1ccccc1)*; Boc = CC(C)(C)OC(=O)*; NHNH2 = NN*

Tested on: CEM cells HIV-1 protection, formazan growth assay
Assay: NCI AIDS Antiviral Assay
Details: for IC50: measured here: growth of uninfected CEM cells
Outline: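 CEM (human) cells, HIV-1 infected vs uninfected, 5-point dosing, formazan growth read-out. Retest threshold 50% protection.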

| Structure (SMILES) | EC50 [µM] | IC50 | outcome |
| --- | --- | --- | --- |
| O=S1CC(c2ccccc2)=C(c2ccccc2)CS1 (stereo not drawn) | > 200 | 47.9 µM |  |
| O=C1C=C(c2c(-c3ccccc3)[nH]c3ccccc23)C(=O)N1c1ccccc1 | > 200 | 15.5 µM |  |
| CC(NC1=NCCO1)c1ccco1 (stereo not drawn) | > 200 | > 200 µM |  |
| CCCCCCCCCCCCN1C(=O)c2ccccc2[Se]1=O (stereo not drawn) | > 2.75 | > 2.75 µM |  |
| CC(C)C1=CC23CCC4C(C)(C(=O)O)CCCC4(C)C2CC1C1C(=O)N(c2cccc(N4C(=O)C5C6CC7C8(C)CCCC(C)(C(=O)O)C8CCC7(C=C6C(C)C)C5C4=O)c2)C(=O)C13 (stereo not drawn) | > 269 | 13.2 µM |  |
| CC1(C)N([O-])[N+](=O)C1(Br)c1ccccc1 (stereo not drawn) | > 200 | 145 µM |  |
| Cc1[nH]n(C(=O)c2ccc(Cl)cc2)c(=O)c1/C=C1\C(O)=CC(=O)c2ccccc21 | > 12.9 | > 12.9 µM |  |
| O=C(c1no[n+]([O-])c1C(=O)c1csc2ccccc12)c1csc2ccccc12 | > 200 | 1.05 µM |  |
| O=C1NC(=O)/C(=C\c2ccccc2)C2=C1CCCC2 | > 74.1 | 15.5 µM |  |
| Cc1nc2c(-c3ccccc3)[nH]c(C)c2c(=O)o1 | > 200 | 69.2 µM |  |
| O=C1/C(=C/c2ccc(Cl)c(Cl)c2)CN(C(=O)CCN2CCOCC2)C/C1=C\c1ccc(Cl)c(Cl)c1 | > 22.9 | 0.12 µM |  |
| Nc1ccc(C(c2ccccc2)(c2ccccc2)c2ccccc2)cc1 |  |  | inactive |
| Cc1cccc(N2CCN(S(=O)(=O)c3ccc(Cl)cc3)C2=N)c1C | > 200 | > 200 µM |  |
| CCOC(=O)c1cc(C)nc2c1c(=O)n(-c1ccccc1)c(=O)n2CCCCN1CCN(c2ccccc2)CC1 | > 200 | > 200 µM |  |
| CN(C)CCCNC(=O)c1cc(NC(=O)c2cc(NC(=O)c3cc(NC(=O)c4ccc(C(=O)Nc5cc(C(=O)Nc6cc(C(=O)Nc7cc(C(=O)NCCCN(C)C)n(C)c7)n(C)c6)n(C)c5)cc4)cn3C)cn2C)cn1C | > 100 | > 100 µM |  |
| CC(C)C(NC(=O)C1CCCN1C(=O)OCc1ccccc1)C(=O)NN (stereo not drawn) (Cbz-Pro-Val-NHNH2; configuration not given here) | > 692 | 407 µM |  |
| CSc1nc2c3ccccc3ccn2c1C(=O)N/N=C/c1ccccc1 | > 100 | > 100 µM |  |
| Cn1c(=O)c2c(no[n+]2[O-])n(C)c1=O | > 200 | 13.2 µM |  |
| NC(=S)C(=S)N=Cc1c(N)[nH]n(-c2ccccc2)c1=O | > 120 | 70.8 µM |  |
| Cc1cc(C23OC4COC(C)(C)OC4C2OC(C)(C)O3)ncn1 (stereo not drawn) | > 200 | > 200 µM |  |
| CCOC(=O)c1nc2ccccc2nc1NCc1cc(OC)c(OC)c(OC)c1 | > 200 | 27.5 µM |  |
| CC(C)CC(NC(=O)C(C)(CI)Cc1ccccc1)C(=O)Nc1ccccc1 (stereo not drawn) | > 200 | 170 µM |  |
| CCCCN(CCO)Cc1cc(Nc2c3ccccc3nc3ccccc23)ccc1O | > 63.1 | 20.4 µM |  |

| Structure (SMILES) | EC50 [µM] | IC50 | outcome |
| --- | --- | --- | --- |
| Oc1ccc(Cc2cc(Cc3ccc(O)cc3)cc(Cc3ccc(O)cc3)c2)cc1 | 93.3 | > 100 µM |  |
| O=Nc1c(-c2ccc(Cl)cc2)nc2ncccn12 | > 200 | 38 µM |  |
| COc1ccc(C2=NNC(=O)CC2)cc1OC | > 1070 | 550 µM |  |
| CCOC(=O)/C(=C/c1ccccn1)C(=O)c1ccccc1 | > 240 | 12.6 µM |  |
| O=C1NC(=O)/C(=C\c2cccc([N+](=O)[O-])c2)N1 | > 200 | 158 µM |  |
| CC(=O)Oc1ccc2cc(Oc3cc(Cl)c(Cl)cc3Cl)c(=O)oc2c1 | > 200 | 93.3 µM |  |
| C(/C=N/NC1=NCCN1)=N\NC1=NCCN1 | > 200 | > 200 µM |  |
| CC1CCC2CC1NC(=O)CCOCCC(=O)NC2(C)C (stereo not drawn) | > 45.7 | > 45.7 µM |  |
| CO/N=C(\C(=O)[N-][n+]1cnn(CC(=O)O)c1)c1csc(N)n1 | > 200 | > 200 µM |  |
| CC(=O)c1cc(N=Nc2ccc(/C=C/c3ccc(N=Nc4cc(O)c5ncccc5c4C(C)=O)cc3S(=O)(=O)O)c(S(=O)(=O)O)c2)c(O)c2ncccc12 | > 29.5 | 28.8 µM |  |
| CC(C)C(/C=C/c1ccccc1)=N\NC(=S)NN | > 200 | 102 µM |  |
| Nc1ccc(S(=O)(=O)c2ccc(N)cc2)cc1 |  |  | inactive |
| O=C(O)c1cc2ccc(O)c(O)c2cn1 | > 56.2 | 2.04 µM |  |
| [N-]=N[N+]#I1OC(C(F)(F)F)(C(F)(F)F)c2ccccc21 |  |  | inactive |
| CC(=O)N1c2ccccc2[C@H]2CCc3c([nH]c4ccccc34)[C@H]21 | > 20 | 12.9 µM |  |
| COc1cc(O)c2c(=O)c(OC)c(-c3ccc(OC)c(OC)c3)oc2c1.[Co] | > 100 | 56.2 µM |  |
| CC/C(=N/O)c1ccc(Br)s1 |  |  | inactive |
| COc1ccc2nc3cccc([N+](=O)[O-])c3c(NCCNCCO)c2c1 | > 0.2 | 0.112 µM |  |
| CC(Cn1c2c3ccccc3ccc2c2oc(=O)c3ccccc3c21)N(C)C (stereo not drawn) | > 3.89 | > 3.89 µM |  |
| O=S(Cc1cc2c(cc1-c1ccccc1)OCO2)c1ccccc1 (stereo not drawn) | > 269 | 9.55 µM |  |
| COc1ccccc1/C=C/C(=O)c1sc(-c2cccnc2)nc1C | > 15.5 | > 15.5 µM |  |
| CCC(C)N1CN(c2ccccc2)C2(CCN(CCCC(=O)c3ccc(F)cc3)CC2)C1=O (stereo not drawn) | > 200 | 3.55 µM |  |
| N#Cc1cccc(Nc2ccccc2SSc2ccccc2Nc2cccc(C#N)c2)c1 | > 58.9 | 4.79 µM |  |

| Structure (SMILES) | EC50 [µM] | IC50 | outcome |
| --- | --- | --- | --- |
| CCCCN(CCCC)C(=S)S | > 200 | > 200 µM |  |
| O=C1c2ccc3c4ccccc4n(-c4ccccc4)c3c2C(=O)N1c1ccc(Cl)cc1 |  |  | inactive |
| O=C1NC(c2ccco2)N2C(=O)NC(c3ccco3)N12 (stereo not drawn) |  |  | inactive |
| O=c1/c(=C/c2ccc3c(c2)OCO3)sc2nnc(Cc3ccccc3)n12 | > 20 | > 20 µM |  |
| CN1CCN(c2n[nH]c(=O)c3c2nnn3C2CCCCC2)CC1 | > 200 | > 200 µM |  |
| CC(=O)Nc1ccc(/C=C/C(=O)c2ccccc2)cc1 | > 38 | > 38 µM |  |
| CN1CCC(OC(c2ccccc2)c2ccc(Cl)cc2)C1 (stereo not drawn) |  |  | inactive |
| S=c1ncc(-c2cncc(-c3cnc(=S)[nH]c3)n2)c[nH]1 | > 200 | > 200 µM |  |
| NNc1ncnc(NN)c1Br | > 200 | 56.2 µM |  |
| N#CC(C#N)=Cc1ccccc1[N+](=O)[O-] | > 302 | 15.1 µM |  |
| CCNC(=O)CNC(=O)C(Cc1ccc([N+](=O)[O-])cc1)NC(=O)OC(C)(C)C (stereo not drawn) (Boc-[ξPhe(4-NO2)]-Gly-NHEt) | 162 | 813 µM |  |
| O=C1C=CC(=C(c2ccc(O)cc2)c2ccc(O)cc2)C=C1 |  |  | inactive |
| COc1cc(Br)c(CC2NCCc3cc(OC)c(OC)cc32)cc1OC (stereo not drawn) | > 224 | > 224 µM |  |
| N#Cc1c(N)nc(SCc2ccccc2)c(C#N)c1-c1ccc(O)cc1 | > 200 | 10 µM |  |
| Nc1nc(N)c2ncn(C3OC(CO)CC3F)c2n1 (stereo not drawn) | 34.7 | 93.3 µM |  |
| c1ccc2nc([Se][Se]c3ccc4ccccc4n3)ccc2c1 | > 9.12 | 4.17 µM |  |
| O=C1C[C@H]2CCCN2[C@@H](c2ccccc2)C1 | > 603 | > 603 µM |  |
| COc1cc(-c2cc(=O)c3c(C)cc(O)cc3o2)cc(OC)c1OC | 112 | > 200 µM |  |
| CCCCOP(=O)(OCCCC)/C(C#N)=C/c1ccco1 | > 219 | 178 µM |  |
| Clc1ccc2c(c1)[nH]c1c2nc2ccccn21 | > 30.2 | 29.5 µM and > 25.7 µM |  |
| CSc1cc(=O)[nH]c(=O)[nH]1 | > 200 | > 200 µM |  |
| O=C(CC(=O)C1CCOC1=O)C(=O)Nc1ccc(Cl)cc1Cl (stereo not drawn) |  |  | inactive |
| COc1ccc(-c2cc(O)c3nc4ccccc4n3c2)cc1 | > 200 | > 200 µM |  |

| Structure (SMILES) | EC50 [µM] | IC50 | outcome |
| --- | --- | --- | --- |
| O=C(O/C(=C(/N=Nc1ccccc1)c1ccccc1)c1ccccc1)c1ccccc1 |  |  | inactive |
| CCCC(=O)NC1Cc2cc(C)cc(C)c21 (stereo not drawn) | > 45.7 | > 45.7 µM |  |
| COc1ccccc1N1C(=O)/C(=C\c2cccc(Oc3ccccc3)c2)S(=O)(=O)C1c1ccccc1 (stereo not drawn) | > 200 | 36.3 µM |  |
| COc1ccc(N=Nc2c(-c3ccccc3)nn(C(=O)CC(=O)Nc3cccc(Cl)c3)c2-c2ccccc2)cc1 | > 18.2 | > 18.2 µM |  |
| O=CC1(c2ccccc2)NC(=O)NC1=O (stereo not drawn) | > 200 | > 200 µM |  |
| SCCSCCCSCCS | > 22.9 | > 22.9 µM |  |
| Cc1ccc2c(n1)C(N(C)C)=CC(=O)C2=O |  |  | inactive |
| C=CCC1C(=O)Nc2cccc3ncn(c23)C1=O (stereo not drawn) | > 200 | 186 µM |  |
| [N-]=[N+]=Nc1ncnc2c1sc(=S)n2-c1ccccc1 | > 91.2 | > 91.2 µM |  |
| COc1cccc2c1C(=O)c1c(O)c3c(c(O)c1C2=O)C[C@@](O)(C(C)=O)CC3OC1CC(N=[N+]=[N-])C(OC)C(C)O1 (stereo partly drawn) |  |  | inactive |
| Nc1nc(O)c(N=O)c(=O)[nH]1 | > 200 | > 200 µM |  |
| COC(=O)C1(F)C(=O)NC(=O)NC1O (stereo not drawn) | > 200 | 91.2 µM |  |
| C/C(=N/NS(=O)(=O)c1ccc(N)cc1)c1ccccc1O | > 117 | > 117 µM |  |
| C(=C\N1CCCCC1)/c1nnnn1-c1ccccc1 | > 200 | 24 µM |  |
| O=C(CC(C(=O)c1cccs1)c1cccs1)c1ccsc1 (stereo not drawn) | > 200 | 11.7 µM |  |
| C=C(C)[C@H]1Cc2c(ccc3c2O[C@@H]2COc4cc(OC)c(OC)cc4[C@@H]2C3=O)O1 | > 2 | 0.0479 µM |  |
| COCO[C@@H]1C[C@H]2C(=O)N(COC)c3ccccc3C(=O)N2C1 | > 200 | > 200 µM |  |
| Oc1ccc(O)c2c1N=NC21c2ccccc2Oc2ccccc21 | > 112 | 33.1 µM |  |
| O=C(O)CCCO | > 200 | > 200 µM |  |
| O=P(OCC1CCCO1)(OCC1CCCO1)OCC1CCCO1 (stereo not drawn) |  |  | inactive |
| NS(=O)(=O)c1nnc(NS(=O)(=O)c2ccc(F)cc2)s1 | > 200 | > 200 µM |  |
| Cn1c(O)c(C=Nc2ccccc2[N+](=O)[O-])c(=O)n(C)c1=O |  |  | inactive |
